Assays:
Type in all cases: physicochemical
[1] = Vapor-liquid equilibrium still, separation of 1,1,1-trichloroethane from ethanol
[2] = Vapor-liquid equilibrium still, separation of 1,1,1-trichloroethane from 2-butanol
[3] = Vapor-liquid equilibrium still, separation of 1,1,1-trichloroethane from methanol
[4] = 1,1,1-trichloroethane from ethanol
[5] = 1,1,1-trichloroethane from 2-butanol, vapor-liquid equilibrium still
[6] = * Brings out Ethanol as Overhead
[7] = 1,1,1-trichloroethane from methanol, vapor-liquid equilibrium still

| Compound | Relative Volatility [1, 4] | Relative Volatility [2, 5] | Relative Volatility [3, 7] | other results |
| --- | --- | --- | --- | --- |
| CC(=O)CC(C)(C)O [Diacetone alcohol] | 2.7 |  |  |  |
| CC(C)CC(O)CC(C)C [Diisobutyl carbinol] |  |  |  | Relative Volatility [2]: 2.2 |
| CCCCCCCCCC(C)=O [2-Undecanone] | 1.4 |  |  |  |
| COCC(C)OC(C)=O (stereo not drawn) [1-Methoxy-2-acetoxy propane] |  | 2.0 |  |  |
| OCc1ccccc1 [Benzyl alcohol] |  | 3.5 |  |  |
| CCC(CC)CO [2-Ethyl butanol] |  | 3.3 |  | Relative Volatility [3]: 1.4 |
| CCOCCC(=O)OCC [Ethyl 3-ethoxy propionate] | 1.6 |  |  |  |
| CCOC(=O)Cc1ccccc1 [Ethyl phenyl acetate] |  |  |  | Relative Volatility [1, 6]: 1.5 |
| CCCCOC(C)=O [n-Butyl acetate] |  |  |  | Relative Volatility [1, 6]: 3.5 |
| Dipropylene glycol methyl ether | 1.85 |  | 4.3 |  |
| CCOCCOC(C)=O [Ethylene glycol ethyl ether acetate] |  |  |  | Relative Volatility [3]: 2.5; Relative Volatility [1, 6]: 1.5 |
| CCCCCCCCCCO [n-Decanol] |  | 2.3 |  | Relative Volatility [3]: 2.5 |
| CC(=O)OCCC(C)C [Isoamyl acetate] | 1.25 |  |  |  |
| CCCCCCC(C)O (stereo not drawn) [2-Octanol] |  | 2.6 | 2.8 |  |
| CCOC(=O)c1ccccc1 [Ethyl benzoate] | 1.55 |  |  |  |
| COCC(C)O (stereo not drawn) [1-Methoxy-2-propanol] | 2.9 |  |  |  |
| CC(C)CCO [3-Methyl-1-butanol] | 2.9 |  |  |  |
| CC(C)CC(C)O (stereo not drawn) [4-Methyl-2-pentanol] | 2.1 | 3.2 | 4.2 |  |
| CCOC(=O)CC(C)=O [Ethyl acetoacetate] | 1.7 |  | 2.8 | Relative Volatility [2]: 1.8 |

| Compound | Relative Volatility [1, 4] | Relative Volatility [2, 5] | Relative Volatility [3, 7] | other results |
| --- | --- | --- | --- | --- |
| Tripropylene glycol methyl ether |  |  | 3.2 |  |
| COCC(C)OC(C)=O (stereo not drawn) [Propylene glycol methyl ether acetate] |  |  | 2.3 | Relative Volatility [2]: 1.8 |
| CC(=O)CCC(C)C [Methyl isoamyl ketone] | 2.0 | 1.6 | 2.3 |  |
| CCCCCC(C)=O [2-Heptanone] | 1.3 |  | 3.2 | Relative Volatility [2]: 1.4 |
| OCC1CCCO1 (stereo not drawn) [Tetrahydro furfuryl alcohol] | 2.3 | 3.2 | 3.3 |  |
| CC(=O)OC(C)CC(C)C (stereo not drawn) [4-Methyl pentyl acetate-2] |  | 1.7 | 2.9 | Relative Volatility [1, 6]: 1.45 |
| CC(C)CC(=O)CC(C)C [2,6-Dimethyl-4-heptanone] | 1.65 |  |  |  |
| CCCCCCOCCO [Ethylene glycol hexyl ether] |  |  |  | Relative Volatility [3]: 3.1; Relative Volatility [2]: 2.9 |
| CC(C)CC(=O)CC(C)C [Diisobutyl ketone] | 1.7 |  |  | Relative Volatility [3]: 2.7; Relative Volatility [2]: 1.5 |
| CC(C)CCCCCO [Isooctyl alcohol] | 2.1 | 2.4 |  | Relative Volatility [3]: 2.5 |
| CCOCCOCCOC(C)=O [Diethylene glycol ethyl ether acetate] |  | 2.1 | 2.8 |  |
| CCCOC(C)=O [n-Propyl acetate] | 1.85 |  |  |  |
| CCCCCOC(C)=O [n-Amyl acetate] |  |  |  | Relative Volatility [1, 6]: 1.85 |
| COc1ccccc1 [Anisole] |  |  |  | Relative Volatility [1, 6]: 1.25 |
| CCCCCCCO [Heptyl alcohol] |  |  |  | Relative Volatility [3]: 3.6; Relative Volatility [2]: 3.1 |
| CC(C)CCCCCCCO [Isodecyl alcohol] |  | 2.4 | 2.3 |  |
| CC(=O)OC(C)C [Isopropyl acetate] | 1.6 |  |  |  |
| 1-Methoxy-2-acetoxy propanol |  |  | 2.3 |  |
